Test results taken from PubChem BioAssay (NCI).
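Following 48 hours of exposure in 96-well plates, responses at five concentrations were used to interpolate endpoints linearly. Here, GI50 denotes the concentration required for 50% inhibition of growth. TGI marks complete inhibition of growth.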

Columns and labels:
Assay in all cases: growth of human tumour cells (NCI), 48 h
786-0 renal = tested on: 786-0 renal
A498 renal = tested on: A498 renal
A549 NSCLC = tested on: A549 NSCLC
ACHN renal = tested on: ACHN renal
BT-549 breast = tested on: BT-549 breast
CAKI-1 renal = tested on: CAKI-1 renal
CCRF-CEM leukemia = tested on: CCRF-CEM leukemia
COLO 205 colon = tested on: COLO 205 colon
DU-145 prostate = tested on: DU-145 prostate
EKVX NSCLC = tested on: EKVX NSCLC
HCC-2998 colon = tested on: HCC-2998 colon
HCT-116 colon = tested on: HCT-116 colon
HCT-15 colon = tested on: HCT-15 colon
HL-60(TB) leukemia = tested on: HL-60(TB) leukemia
HOP-62 NSCLC = tested on: HOP-62 NSCLC
HOP-92 NSCLC = tested on: HOP-92 NSCLC
HS 578T breast = tested on: HS 578T breast
HT29 colon = tested on: HT29 colon
IGROV1 ovarian = tested on: IGROV1 ovarian
K-562 leukemia = tested on: K-562 leukemia
KM12 colon = tested on: KM12 colon
LOX IMVI melanoma = tested on: LOX IMVI melanoma
M14 melanoma = tested on: M14 melanoma
MALME-3M melanoma = tested on: MALME-3M melanoma
MCF7 breast = tested on: MCF7 breast
MDA-MB-231 breast = tested on: MDA-MB-231 breast
MDA-MB-435 = tested on: MDA-MB-435
MOLT-4 leukemia = tested on: MOLT-4 leukemia
NCI-H226 lung = tested on: NCI-H226 lung
NCI-H23 lung = tested on: NCI-H23 lung
NCI-H460 lung = tested on: NCI-H460 lung
NCI-H522 lung = tested on: NCI-H522 lung
NCI/ADR-RES ovarian = tested on: NCI/ADR-RES ovarian
OVCAR-3 ovarian = tested on: OVCAR-3 ovarian
OVCAR-4 ovarian = tested on: OVCAR-4 ovarian
OVCAR-5 ovarian = tested on: OVCAR-5 ovarian
OVCAR-8 ovarian = tested on: OVCAR-8 ovarian
PC-3 prostate = tested on: PC-3 prostate
RPMI-8226 leukemia = tested on: RPMI-8226 leukemia
RXF 393 renal = tested on: RXF 393 renal
SF-268 CNS = tested on: SF-268 CNS
SF-295 CNS = tested on: SF-295 CNS
SF-539 CNS = tested on: SF-539 CNS
SK-MEL-2 melanoma = tested on: SK-MEL-2 melanoma
SK-MEL-28 melanoma = tested on: SK-MEL-28 melanoma
SK-MEL-5 melanoma = tested on: SK-MEL-5 melanoma
SK-OV-3 ovarian = tested on: SK-OV-3 ovarian
SN12C renal = tested on: SN12C renal
SNB-19 CNS = tested on: SNB-19 CNS
SNB-75 CNS = tested on: SNB-75 CNS
SR leukemia = tested on: SR leukemia
SW-620 colon = tested on: SW-620 colon
T-47D breast = tested on: T-47D breast
TK-10 renal = tested on: TK-10 renal
U251 CNS = tested on: U251 CNS
UACC-257 melanoma = tested on: UACC-257 melanoma
UACC-62 melanoma = tested on: UACC-62 melanoma
UO-31 renal = tested on: UO-31 renal

Work on `CN1CCC(n2cc(Nc3ncc4c(=O)n(-c5c(Cl)cccc5Cl)cc(Br)c4n3)cn2)CC1` yielded a GI50 (786-0 renal) of 241 nM, a TGI (786-0 renal) of 8320 nM and a GI50 (A498 renal) of 62.8 nM. For the same compound, the TGI (A498 renal) was 3190 nM, the GI50 (A549 NSCLC) was 2320 nM and the TGI (A549 NSCLC) was 11500 nM. It also gave a GI50 (ACHN renal) of 40.2 nM, a TGI (ACHN renal) of 11900 nM and a GI50 (BT-549 breast) of 399 nM. For the same compound, the TGI (BT-549 breast) was 4640 nM, the GI50 (CAKI-1 renal) was 98.4 nM and the TGI (CAKI-1 renal) was 11500 nM. For the same compound, the GI50 (CCRF-CEM leukemia) was 75 nM, the TGI (CCRF-CEM leukemia) was 6360 nM and the GI50 (COLO 205 colon) was 1140 nM. It also gave a TGI (COLO 205 colon) of 8530 nM, a GI50 (DU-145 prostate) of 1300 nM and a TGI (DU-145 prostate) of 14800 nM. For the same compound, the GI50 (EKVX NSCLC) was 2770 nM, the TGI (EKVX NSCLC) was 18000 nM and the GI50 (HCC-2998 colon) was 740 nM. The TGI (HCC-2998 colon) was 12500 nM, the GI50 (HCT-116 colon) was 585 nM and the TGI (HCT-116 colon) was 10400 nM. For the same compound, the GI50 (HCT-15 colon) was 368 nM, the TGI (HCT-15 colon) was 11300 nM and the GI50 (HL-60(TB) leukemia) was 160 nM. The TGI (HL-60(TB) leukemia) was 853 nM, the GI50 (HOP-62 NSCLC) was 846 nM and the TGI (HOP-62 NSCLC) was 13300 nM. The GI50 (HOP-92 NSCLC) was 102 nM, the TGI (HOP-92 NSCLC) was 3730 nM and the GI50 (HS 578T breast) was 538 nM. It also gave a TGI (HS 578T breast) of 16100 nM, a GI50 (HT29 colon) of 142 nM and a TGI (HT29 colon) of 2620 nM. It also gave a GI50 (IGROV1 ovarian) of 110 nM, a TGI (IGROV1 ovarian) of 7320 nM and a GI50 (K-562 leukemia) of 178 nM. For the same compound, the TGI (K-562 leukemia) was 12500 nM, the GI50 (KM12 colon) was 551 nM and the TGI (KM12 colon) was 16300 nM. It also gave a GI50 (LOX IMVI melanoma) of 480 nM, a TGI (LOX IMVI melanoma) of 2920 nM and a GI50 (M14 melanoma) of 65 nM. It also gave a TGI (M14 melanoma) of 13400 nM, a GI50 (MALME-3M melanoma) of 796 nM and a TGI (MALME-3M melanoma) of 18100 nM. For the same compound, the GI50 (MCF7 breast) was 181 nM, the TGI (MCF7 breast) was 7250 nM and the GI50 (MDA-MB-231 breast) was 821 nM. The TGI (MDA-MB-231 breast) was 13400 nM, the GI50 (MDA-MB-435) was 148 nM and the TGI (MDA-MB-435) was 10300 nM. It also gave a GI50 (MOLT-4 leukemia) of 64.6 nM, a TGI (MOLT-4 leukemia) of 4260 nM and a GI50 (NCI-H226 lung) of 1290 nM. It also gave a TGI (NCI-H226 lung) of 11400 nM, a GI50 (NCI-H23 lung) of 65.1 nM and a TGI (NCI-H23 lung) of 594 nM. For the same compound, the GI50 (NCI-H460 lung) was 1350 nM, the TGI (NCI-H460 lung) was 8910 nM and the GI50 (NCI-H522 lung) was 424 nM. For the same compound, the TGI (NCI-H522 lung) was 2650 nM, the GI50 (NCI/ADR-RES ovarian) was 288 nM and the TGI (NCI/ADR-RES ovarian) was 15300 nM. For the same compound, the GI50 (OVCAR-3 ovarian) was 223 nM, the TGI (OVCAR-3 ovarian) was 3470 nM and the GI50 (OVCAR-4 ovarian) was 627 nM. For the same compound, the TGI (OVCAR-4 ovarian) was 11300 nM, the GI50 (OVCAR-5 ovarian) was 1360 nM and the TGI (OVCAR-5 ovarian) was 12300 nM. It also gave a GI50 (OVCAR-8 ovarian) of 268 nM, a TGI (OVCAR-8 ovarian) of 5020 nM and a GI50 (PC-3 prostate) of 1720 nM. The TGI (PC-3 prostate) was 16400 nM, the GI50 (RPMI-8226 leukemia) was 1150 nM and the TGI (RPMI-8226 leukemia) was 10300 nM. The GI50 (RXF 393 renal) was 80.8 nM, the TGI (RXF 393 renal) was 585 nM and the GI50 (SF-268 CNS) was 2160 nM. For the same compound, the TGI (SF-268 CNS) was 16500 nM, the GI50 (SF-295 CNS) was 939 nM and the TGI (SF-295 CNS) was 15500 nM. The GI50 (SF-539 CNS) was 33.7 nM, the TGI (SF-539 CNS) was 166 nM and the GI50 (SK-MEL-2 melanoma) was 192 nM. It also gave a TGI (SK-MEL-2 melanoma) of 1730 nM, a GI50 (SK-MEL-28 melanoma) of 4100 nM and a TGI (SK-MEL-28 melanoma) of 18900 nM. For the same compound, the GI50 (SK-MEL-5 melanoma) was 419 nM, the TGI (SK-MEL-5 melanoma) was 17500 nM and the GI50 (SK-OV-3 ovarian) was 275 nM. For the same compound, the TGI (SK-OV-3 ovarian) was 13900 nM, the GI50 (SN12C renal) was 235 nM and the TGI (SN12C renal) was 11400 nM. For the same compound, the GI50 (SNB-19 CNS) was 693 nM, the TGI (SNB-19 CNS) was 13600 nM and the GI50 (SNB-75 CNS) was 611 nM. It also gave a TGI (SNB-75 CNS) of 11300 nM, a GI50 (SR leukemia) of 42.5 nM and a TGI (SR leukemia) of 1610 nM. The GI50 (SW-620 colon) was 1200 nM, the TGI (SW-620 colon) was 11800 nM and the GI50 (T-47D breast) was 887 nM. The TGI (T-47D breast) was 15500 nM, the GI50 (TK-10 renal) was 178 nM and the TGI (TK-10 renal) was 17400 nM. It also gave a GI50 (U251 CNS) of 787 nM, a TGI (U251 CNS) of 11200 nM and a GI50 (UACC-257 melanoma) of 1270 nM. For the same compound, the TGI (UACC-257 melanoma) was 9280 nM, the GI50 (UACC-62 melanoma) was 901 nM and the TGI (UACC-62 melanoma) was 22000 nM. For the same compound, the GI50 (UO-31 renal) was 70.8 nM and the TGI (UO-31 renal) was 11500 nM.
